Consider 7 molecules from US6743795B1, “3-nitropyridine derivaives and the pharmaceutical compositions containing said derivatives” (Dong Wha Pharm. Ind. Co. Ltd., priority 1999, dated 2004).

In the experiment the target is T1, HBV polymerase (Hepatitis B virus genotype A2 subtype adw2, UniProt P03159).
T1 construct: made in house; host or cells: E. coli
The experiment can be described thus: In vitro reverse transcription activity of HBV polymerase (ELISA-type, DIG/biotin nucleotides). The conditions noted are these: for inhibition at 0.01 µg/mL / inhibition at 0.1 µg/mL / inhibition at 1 µg/mL: read-out: Inhibition activity on HBV-RT (%). The experiment is classed as biochemical. As to the method:
<Experiment 1> Inhibitory Effect on the In Vitro Activities of HBV Polymerase in Reverse Transcription
The following in vitro experiment was performed to determine the effect of the compounds of formula 1 on the activity of HBV polymerase during reverse transcription.
The present inventors submitted application for a patent concerning HBV polymerase genetically expressed in and separated from E.coli, the process of its preparation, and the method to measure the enzyme activities (KR 94-3918, KR 96-33998). In the present experiments HBV polymerase was used which had been expressed in E. coli as stated above.
The method used in the present invention to measure in vitro reverse transcribing activities of HBV polymerase is as follows. Basic principles are the same as for ELISA. Nucleotides with biotin or digoxigenin group attached are included as substrates and anti-DIG antibodies attached to peroxidase enzyme recognize the polymerized substrates.
To the wells coated with streptavidin, 20 μl of HBV polymerase, 20 μl of reaction mixture (10 μM each of DIG-UTP and Biotin-UTP, 46 mM Tris-HCl, 266 mM KCl, 27.5 mM MgCl2, 9.2 mM DTT substrate/primer nybrid), and 20 μl of test compound (added to 1, 0.1, and 0.01 μg/ml) were added and allowed to react at 22° C. for 15 hrs. During this reaction, HBV polymerase catalyzes DNA synthesis and digoxigenin and biotin attached to nucleotides form bonds with streptavidin coated on the bottom of wells. When the reaction was done, each well was washed with 250 μl of cleaning buffer (pH 7.0) for 30 seconds, which was repeated five times to remove remaining impurities. 200 μl of anti-DIG-POD antibody was added to each well and allowed to react for 1 hr at 37° C., and the wells were washed with cleaning buffer to remove impurities. 200 μl each of ABTS™, a substrate of peroxidase, was then added and allowed to react at room temperature for 30 min. Absorbance was measured at 405 nm using ELISA reader.
The percentage of reduction in HBV polymerase activities for reverse transcription was calculated using the group without test compound as a control and the results are shown in Table 3.
(ELISA stands for enzyme-linked immunosorbent assay.)

A word on the inhibition: it is the change of the read-out against control, counted positive when it falls.

T1 sequence (P03159 whole entry): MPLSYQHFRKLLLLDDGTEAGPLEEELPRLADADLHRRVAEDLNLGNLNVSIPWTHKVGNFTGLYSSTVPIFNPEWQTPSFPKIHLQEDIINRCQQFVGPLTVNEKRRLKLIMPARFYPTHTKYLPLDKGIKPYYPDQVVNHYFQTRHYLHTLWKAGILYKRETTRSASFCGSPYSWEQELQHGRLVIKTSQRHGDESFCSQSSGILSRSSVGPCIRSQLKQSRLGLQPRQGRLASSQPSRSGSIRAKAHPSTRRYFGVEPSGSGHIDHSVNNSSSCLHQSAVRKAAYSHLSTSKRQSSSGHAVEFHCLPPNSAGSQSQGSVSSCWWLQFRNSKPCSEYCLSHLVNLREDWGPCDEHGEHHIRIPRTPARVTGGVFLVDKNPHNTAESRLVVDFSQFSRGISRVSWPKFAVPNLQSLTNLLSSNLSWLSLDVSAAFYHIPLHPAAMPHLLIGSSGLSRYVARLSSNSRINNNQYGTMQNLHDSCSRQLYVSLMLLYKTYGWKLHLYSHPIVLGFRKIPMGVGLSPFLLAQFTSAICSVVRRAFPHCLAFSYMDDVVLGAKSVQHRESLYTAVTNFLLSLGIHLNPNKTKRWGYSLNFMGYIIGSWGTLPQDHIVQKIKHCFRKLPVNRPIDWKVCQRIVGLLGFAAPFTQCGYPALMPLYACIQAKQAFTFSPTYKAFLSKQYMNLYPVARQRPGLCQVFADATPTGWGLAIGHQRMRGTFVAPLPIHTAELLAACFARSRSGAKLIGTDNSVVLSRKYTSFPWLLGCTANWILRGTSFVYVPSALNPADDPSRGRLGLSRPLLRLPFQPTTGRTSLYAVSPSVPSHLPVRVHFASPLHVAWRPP

In the case of `O=[N+]([O-])c1ccc(N2CCC(O)CC2)nc1Nc1ccc2cn[nH]c2c1` [Example 29, 6-(4-hydroxy-1-piperidinyl)-2-(1H-6-indazolylamino)-3-nitropyridine], under “0.01 μg/ml test compound”, the inhibition at 0.01 µg/mL amounted to 10%. The inhibition at 0.1 µg/mL (0.1 μg/ml test compound) came to 35%. In addition, for the setting “1 μg/ml test compound”, the inhibition at 1 µg/mL turned out to be 52%.

In the case of `O=[N+]([O-])c1ccc(N2CCC(O)CC2)nc1Nc1ccc2[nH]ncc2c1` [Example 28, 6-(4-hydroxy-1-piperidinyl)-2-(1H-5-indazolylamino)-3-nitropyridine], for the setting “0.01 μg/ml test compound”, the inhibition at 0.01 µg/mL was found to be 20%. Further, the inhibition at 0.1 µg/mL (0.1 μg/ml test compound) was determined as 34%. The inhibition at 1 µg/mL (1 μg/ml test compound) turned out to be 55%.

Turning to `CN1CCN(Nc2ccc([N+](=O)[O-])c(Nc3ccc4[nH]ncc4c3)n2)CC1` [Example 17, 2-(1H-5-indazolylamino)-6-(4-methyl-1-piperazinyl)amino-3-nitropyridine], the inhibition at 0.01 µg/mL (0.01 μg/ml test compound) came to 41%. The inhibition at 0.1 µg/mL (0.1 μg/ml test compound) was found to be 52%. Moreover, the inhibition at 1 µg/mL (1 μg/ml test compound) stood at 75%.

`C[C@@H](CCO)Nc1ccc([N+](=O)[O-])c(Nc2ccc3cn[nH]c3c2)n1` [Example 13, 6-[(1S)-1-(hydroxyethyl)ethylamino]-2-(1H-6-indazolylamino)-3-nitropyridine]: where the note is “0.01 μg/ml test compound”, the inhibition at 0.01 µg/mL turned out to be 10%. Further, the inhibition at 0.1 µg/mL (0.1 μg/ml test compound) was found to be 35%. The inhibition at 1 µg/mL (1 μg/ml test compound) was determined as 66%.

Turning to `Nc1ccc([N+](=O)[O-])c(Nc2ccc3[nH]ncc3c2)n1` [Example 9, 6-amino-2-(1H-5-indazolylamino)-3-nitropyridine], the inhibition at 0.01 µg/mL (0.01 μg/ml test compound) came out at 40%. Further, the inhibition at 0.1 µg/mL (0.1 μg/ml test compound) was determined as 59%. Besides, the inhibition at 1 µg/mL (1 μg/ml test compound) was found to be 80%.

On to `CN1CCN(c2ccc([N+](=O)[O-])c(Nc3ccc4cn[nH]c4c3)n2)CC1` [Example 26, 2-(1H-6-indazolylamino)-6-(4-methyl-1-piperazinyl)-3-nitropyridine], for which the inhibition at 0.01 µg/mL (0.01 μg/ml test compound) came to 18%. Moreover, the inhibition at 0.1 µg/mL (0.1 μg/ml test compound) came out at 40%. Further, under “1 μg/ml test compound”, the inhibition at 1 µg/mL was determined as 63%.

On to “6-(2-hydroxyethyl)methylamino-2-(1H-5-indazolylamino)-3-nitropyridine [Example 10]”, for which the “Inhibition activity on HBV-RT (%)” value (0.01 μg/ml test compound) is reported as 50%, the “Inhibition activity on HBV-RT (%)” value (0.1 μg/ml test compound) came to 58% and the “Inhibition activity on HBV-RT (%)” value (1 μg/ml test compound) worked out at 78%.
